Laboratory results: patent publication US8269009B2, “Methods and compositions for treating liquid tumors” (Elan Pharmaceuticals, Inc., priority 2007, dated 2012)

What was measured:
[1] = Maximum tolerated dose of topotecan in the MOLT-4 model (Piedmont Research Center); conditions: SCID, mouse, in vivo; MOLT-4 cell line model
Protocol: The dose level of 12 mg/kg topotecan was determined as maximum tolerated dose in the MOLT-4 cell line by Piedmont Research Center. Since maximal biologic effect can occur at a dose much lower than the MTD, we had included ½ the maximum tolerated (½MTD=6 mg/kg) (see Marx, G M et al., Journal of Clin One 2002; 20(6): 1446-1448).

[2] = system: neovascularization of the cornea; assay: Mouse corneal micropocket angiogenesis assay (VEGF pellet); type: in vivo, C57BL/6 mice
Protocol: Fifty-five Charles River (Wilmington, N.C.) female C57BL/6 mice were available for the study. […] On Day 1 (Oct. 9, 2007) the Hydron pellets were implanted into corneal pocket cut in one eye of mice; pellets containing 200 ng/animal VEGF were implanted in Groups 2-6. Mice were anesthetized with 90 mg/kg pentobarbital, IP, immediately prior to implantation surgery; pellet implantation was performed according to Piedmont SOP which the test facility described as an adaptation of the method described by Kenyon et al (B M Kenyon, E E Voest, C C Chen, E Flynn, J Folkman, R J D'Amato, 1996, A model of angiogenesis in the mouse cornea, Investigative Opthalmology & Visual Science, Vol 37 No 8, 1625-1632). […]
Body weights were taken every day throughout the study. […] The vessel length of the longest blood vessel to have grown upward from the limbus was measured (VL) as was the circumference of vessel growth or clock hour (CH). The area of neovascularization was calculated using the formula: Area (mm^2)=πVL×CH×0.2. In addition to reporting the vessel length, clock hour, and calculated area of neovascularization, the percent neovascularization compared to the VEGF-treated negative control (Group 2) was reported. statistical significance by Kruskal-Wallis-Dunn with comparison to Group 2 and mean body weight nadir (the lowest group mean body weight, as a percent change from Day 1. […]

Compound	MTD [1] [mg/kg]	Percent neovascularization ([2]; 10 mg/kg IP, qd x 6 from Day 2) [%]	Changes in body weight vs untreated group ([2]; mouse, in vivo)
CC[C@@]1(O)C(=O)OCc2c1cc1n(c2=O)Cc2cc3c(CN(C)C)c(O)ccc3nc2-1 [topotecan]	12	–	–
bevacizumab: bevacizumab (Avastin, Genentech), an anti-VEGF monoclonal antibody	–	0	no significant changes
